Reference: US11976057B2, “MrgX2 antagonists” (GlaxoSmithKline Intellectual Property Development Limited, priority 2020, dated 2024)
pIC50: −log10 of the molar value.

molecular target: T1, human MRGPRX2 (Homo sapiens, UniProt Q96LB1); assay: Ca2+ mobilization assay (FLIPR TETRA): inhibition of Cortistatin-14 mediated MRGPRX2 activation
T1 sequence (Q96LB1 1-330): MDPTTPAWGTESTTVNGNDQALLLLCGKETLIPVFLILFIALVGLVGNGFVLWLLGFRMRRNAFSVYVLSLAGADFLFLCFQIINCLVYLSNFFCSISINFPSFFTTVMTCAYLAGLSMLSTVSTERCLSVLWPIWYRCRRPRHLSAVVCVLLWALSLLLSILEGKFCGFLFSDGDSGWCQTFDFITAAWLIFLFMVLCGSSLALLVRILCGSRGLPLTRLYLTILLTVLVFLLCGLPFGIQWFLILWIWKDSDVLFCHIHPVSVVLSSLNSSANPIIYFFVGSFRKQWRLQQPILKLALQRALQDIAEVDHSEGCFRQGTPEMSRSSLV

Row | pIC50 | SMILES
1 | 5.50 to 7.00 | C[C@@H](C(=O)Nc1ccc(F)cn1)N1CCC(F)(F)[C@@H](c2ccc(=O)[nH]n2)C1 [Example 148, (S)-2-((R)-4,4-difluoro-3-(6-oxo-1,6-dihydropyridazin-3-yl)piperidin-1-yl)-N-(5-fluoropyridin-2-yl)propanamide]
2 | ≥ 8.00 | CNCc1cc([C@H]2CN([C@@H](C)C(=O)Nc3ccc(Oc4ccc(F)cc4F)cn3)CCC2(F)F)c[nH]c1=O [Example 243, (S)-2-((S)-4,4-difluoro-3-(5-((methylamino)methyl)-6-oxo-1,6-dihydropyridin-3-yl)piperidin-1-yl)-N-(5-(2,4-difluorophenoxy)pyridin-2-yl)propanamide]
3 | 7.00 to 8.00 | C[C@@H](C(=O)Nc1ccc(Oc2ncccc2F)cn1)N1CCC(F)(F)[C@@H](c2ccc(=O)[nH]c2)C1 [Example 65, (S)-2-((S)-4,4-difluoro-3-(6-oxo-1,6-dihydropyridin-3-yl)piperidin-1-yl)-N-(5-((3-fluoropyridin-2-yl)oxy)pyridin-2-yl)propanamide]
4 | 4.50 to 5.50 | C[C@@H](C(=O)Nc1ccc(Cl)cn1)N1CCC[C@@H](c2ccc(=O)n(C)c2)C1 [Example 176, (S)—N-(5-chloropyridin-2-yl)-2-((S)-3-(1-methyl-6-oxo-1,6-dihydropyridin-3-yl)piperidin-1-yl)propanamide]
5 | 7.00 to 8.00 | C[C@@H](C(=O)Nc1ccc(Cc2ccccc2)nn1)N1CCC(F)(F)[C@@H](c2ccc(=O)[nH]c2)C1 [Example 12, (S)-N-(6-benzylpyridazin-3-yl)-2-((S)-4,4-difluoro-3-(6-oxo-1,6-dihydropyridin-3-yl)piperidin-1-yl)propanamide]
6 | 5.50 to 7.00 | C[C@@H](C(=O)Nc1ccc(Cl)cn1)N1CCC(F)(F)[C@@H](c2cc[n+]([O-])cc2)C1 [Example 112, 4-((S)-1-((S)-1-((5-chloropyridin-2-yl)amino)-1-oxopropan-2-yl)-4,4-difluoropiperidin-3-yl)pyridine 1-oxide]
7 | ≥ 8.00 | C[C@@H](C(=O)Nc1ccc(Oc2ccc(F)cc2F)cn1)N1CCC(F)(F)[C@@H](c2cc[n+]([O-])c(CO)c2)C1 [Example 255]
8 | 4.50 to 5.50 | C[C@@H](C(=O)Nc1ccc(F)cn1)N1CCC(F)(F)C(c2cc(N)c(=O)n(CC(F)(F)F)c2)C1 (stereo partly drawn) [Example 187, (2S)-2-(3-(5-amino-6-oxo-1-(2,2,2-trifluoroethyl)-1,6-dihydropyridin-3-yl)-4,4-difluoropiperidin-1-yl)-N-(5-fluoropyridin-2-yl)propanamide]
9 | ≥ 8.00 | C[C@@H](C(=O)Nc1ccc(Oc2ccc(F)cc2F)cn1)N1CCC(F)(F)[C@@H](c2cc[n+]([O-])cc2)C1 [Example 117, 4-((S)-1-((S)-1-((5-(2,4-difluorophenoxy)pyridin-2-yl)amino)-1-oxopropan-2-yl)-4,4-difluoropiperidin-3-yl)pyridine 1-oxide]
10 | 5.50 to 7.00 | C[C@@H](C(=O)Nc1ccc(OCC2CC2)nn1)N1CCC(F)(F)C(c2ccc(=O)n(CCS(C)(=O)=O)c2)C1 (stereo partly drawn) [Example 191, (2S)-N-(6-(cyclopropylmethoxy)pyridazin-3-yl)-2-(4,4-difluoro-3-(1-(2-(methylsulfonyl)ethyl)-6-oxo-1,6-dihydropyridin-3-yl)piperidin-1-yl)propanamide]
11 | 5.50 to 7.00 | CC(C(=O)Nc1ccc(F)cn1)N1CCC(F)(F)C(c2c[nH]c(=O)c(CS(C)(=O)=O)c2)C1 (centres unmarked) [Example 213, 2-(4,4-difluoro-3-(5-((methylsulfonyl)methyl)-6-oxo-1,6-dihydropyridin-3-yl)piperidin-1-yl)-N-(5-fluoropyridin-2-yl)propanamide]
12 | 7.00 to 8.00 | C[C@@H](C(=O)Nc1ccc(OCC2CC2)cn1)N1CCC(F)(F)[C@@H](c2cc[n+]([O-])cc2)C1 [Example 111, 4-((S)-1-((S)-1-((5-(cyclopropylmethoxy)pyridin-2-yl)amino)-1-oxopropan-2-yl)-4,4-difluoropiperidin-3-yl)pyridine 1-oxide]
13 | 5.50 to 7.00 | C[C@@H](C(=O)Nc1cc2ccccc2cn1)N1CCC(F)(F)[C@@H](c2ccc(=O)[nH]c2)C1 [Example 34, (S)-2-((S)-4,4-difluoro-3-(6-oxo-1,6-dihydropyridin-3-yl)piperidin-1-yl)-N-(isoquinolin-3-yl)propanamide]
14 | ≥ 8.00 | C[C@@H](C(=O)Nc1ccc(Oc2ccc(F)cn2)cn1)[C@H]1CCC[C@@H](c2ccc(=O)[nH]c2)C1 [Example 283, (R)-N-(5((5-fluoropyridin-2-yl)oxy)pyridin-2-yl)-2-((1S,3R)-3-(6-oxo-1,6-dihydropyridin-3-yl)cyclohexyl)propanamide]
15 | 7.00 to 8.00 | C[C@@H](C(=O)Nc1cnc(Oc2ccc(F)cc2)cn1)N1CCC(F)(F)[C@@H](c2c[nH]c(=O)c(CS(C)(=O)=O)c2)C1 [Example 215, (S)-2-((S)-4,4-difluoro-3-(5-((methylsulfonyl)methyl)-6-oxo-1,6-dihydropyridin-3-yl)piperidin-1-yl)-N-(5-(4-fluorophenoxy)pyrazin-2-yl)propanamide]
16 | 5.50 to 7.00 | C[C@@H](C(=O)Nc1ccc(C2CC2)cn1)N1CCC(F)(F)[C@@H](c2c[nH]c(=O)cn2)C1 [Example 137, (S)-N-(5-cyclopropylpyridin-2-yl)-2-((R)-4,4-difluoro-3-(5-oxo-4,5-dihydropyrazin-2-yl)piperidin-1-yl)propanamide]
17 | 5.50 to 7.00 | C[C@@H](C(=O)Nc1ccc(Cl)cn1)N1CCC[C@@H](c2ccc(=O)n(Cc3ccccc3)c2)C1 (single isomer, unassigned) [Example 168]
18 | 5.50 to 7.00 | C[C@@H](C(=O)Nc1ccc(OCC2CCC2)nn1)N1CCC(F)(F)[C@@H](c2ccc(=O)[nH]c2)C1 [Example 71, (S)-N-(6-(cyclobutyl-methoxy)pyridazin-3-yl)-2-((S)-4,4-difluoro-3-(6-oxo-1,6-dihydropyridin-3-yl)piperidin-1-yl)propanamide]
19 | 5.50 to 7.00 | CC(C)c1ccc(NC(=O)C(C)N2CCC(F)(F)[C@@H](c3ccc(=O)[nH]c3)C2)nc1 (stereo partly drawn) [Example 82, 2-((S)-4,4-difluoro-3-(6-oxo-1,6-dihydropyridin-3-yl)piperidin-1-yl)-N-(5-isopropylpyridin-2-yl)propanamide]
20 | 5.50 to 7.00 | C[C@@H](C(=O)Nc1ccc(Cl)cn1)N1CCC(F)(F)[C@@H](c2c[nH]c(=O)cn2)C1 [Example 136, (S)-N-(5-chloropyridin-2-yl)-2-((R)-4,4-difluoro-3-(5-oxo-4,5-dihydropyrazin-2-yl)piperidin-1-yl)propanamide]
21 | 7.00 to 8.00 | Cc1cccc(-c2ccc(NC(=O)[C@H](C)N3CCC(F)(F)[C@@H](c4ccc(=O)[nH]c4)C3)nc2)c1 [Example 16, (S)-2-((S)-4,4-difluoro-3-(6-oxo-1,6-dihydropyridin-3-yl)piperidin-1-yl)-N-(5-(m-tolyl)pyridin-2-yl)propanamide]
22 | ≥ 8.00 | C[C@@H](C(=O)Nc1ccc(Oc2ccc(F)cc2F)cn1)N1CCC(F)(F)C(c2cncc(C(O)C(F)(F)F)c2)C1 (mixture of isomers) [Example 265, (2S)-2-(4,4-difluoro-3-(5-(2,2,2-trifluoro-1-hydroxyethyl)pyridin-3-yl)piperidin-1-yl)-N-(5-(2,4-difluorophenoxy)pyridin-2-yl)propanamide]
23 | 5.50 to 7.00 | C[C@@H](C(=O)Nc1ccc2oc(C3CC3)nc2n1)N1CCC(F)(F)[C@@H](c2ccc(=O)[nH]c2)C1 [Example 17, (S)-N-(2-cyclopropyl-oxazolo[4,5-b]pyridin-5-yl)-2-((S)-4,4-difluoro-3-(6-oxo-1,6-dihydropyridin-3-yl)piperidin-1-yl)propanamide]
